Assay results from ChEMBL document CHEMBL1201862, “PubChem BioAssay data set” (2004).
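These data come from cells grown in 96-well plates and exposed to compound for 48 hours at five concentrations. The concentration for 50% growth inhibition is given as GI50.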 Calls of active or inactive are those of the source. Rule as the data show it: active = GI50 up to about 1.1 µM and inactive = higher.

Key:
Test in all cases: inhibition of tumour cell growth, NCI panel, 48 h
HL-60 = test system: HL-60
NCI-H226 = test system: NCI-H226
SK-MEL-2 = test system: SK-MEL-2
NCI/ADR-RES = test system: NCI/ADR-RES
K562 = test system: K562
DU-145 = test system: DU-145
Malme-3M = test system: Malme-3M
SNB-19 = test system: SNB-19
MDA-N = test system: MDA-N
HCC 2998 = test system: HCC 2998
TK-10 = test system: TK-10
NCI-H460 = test system: NCI-H460
Hs-578T = test system: Hs-578T
CCRF-CEM = test system: CCRF-CEM
UACC-62 = test system: UACC-62
A498 = test system: A498
ACHN = test system: ACHN
UO-31 = test system: UO-31

SMILES | GI50 (HL-60) | GI50 (NCI-H226) | GI50 (SK-MEL-2) | GI50 (NCI/ADR-RES) | GI50 (K562) | GI50 (DU-145) | GI50 (Malme-3M) | GI50 (SNB-19) | GI50 (MDA-N) | GI50 (HCC 2998) | GI50 (TK-10) | GI50 (NCI-H460) | GI50 (Hs-578T) | GI50 (CCRF-CEM) | GI50 (UACC-62) | GI50 (A498) | GI50 (ACHN) | GI50 (UO-31)
Clc1ccc(/C=N/C23CC4CC(CC(C4)C2)C3)cc1Cl | > 10 µM (inactive) | > 10 µM (inactive) | > 10 µM (inactive) | > 10 µM (inactive) | > 10 µM (inactive) | > 10 µM (inactive) | > 10 µM (inactive) | > 10 µM (inactive) | > 10 µM (inactive) | > 10 µM (inactive) | > 10 µM (inactive) | > 10 µM (inactive) | > 10 µM (inactive) | > 10 µM (inactive) | > 10 µM (inactive) | > 10 µM (inactive) | > 10 µM (inactive) | 
COC(=O)c1c(C)nc(C)c(NO)c1-c1ccccc1C(F)(F)F | 5.41 µM (inactive) | 20.2 µM (inactive) | 53.8 µM (inactive) | 18.2 µM (inactive) | 28.3 µM (inactive) | 32.8 µM (inactive) | 16.9 µM (inactive) | > 100 µM (inactive) | 16.8 µM (inactive) | > 100 µM (inactive) | 17.1 µM (inactive) | > 100 µM (inactive) | 62.4 µM (inactive) | 29.2 µM (inactive) | 64.9 µM (inactive) | > 100 µM (inactive) | 30.8 µM (inactive) | 29.5 µM (inactive)
N#CSC#Cc1ccc(C#CSC#N)cc1 | 54.8 µM (inactive) | 21.6 µM (inactive) | 20.2 µM (inactive) | 19.2 µM (inactive) | 39.1 µM (inactive) | 15.1 µM (inactive) | 19.1 µM (inactive) | 21.3 µM (inactive) | 17.8 µM (inactive) | 17.6 µM (inactive) | 16.6 µM (inactive) | 19.9 µM (inactive) | 15.7 µM (inactive) | 10.1 µM (inactive) | 18.1 µM (inactive) | 20.2 µM (inactive) | 16.5 µM (inactive) | 17.2 µM (inactive)
C1COC(NC(C2CC2)C2CC2)=N1 [RILMENIDINE] | > 100 µM (inactive) | > 100 µM (inactive) | > 100 µM (inactive) | > 100 µM (inactive) | > 100 µM (inactive) | > 100 µM (inactive) | > 100 µM (inactive) | > 100 µM (inactive) | > 100 µM (inactive) | > 100 µM (inactive) | > 100 µM (inactive) | > 100 µM (inactive) | > 100 µM (inactive) | > 100 µM (inactive) | > 100 µM (inactive) | > 100 µM (inactive) | > 100 µM (inactive) | > 100 µM (inactive)
Cc1ccc(S(=O)(=O)NNC(=O)Nc2cccc(C(F)(F)F)c2)cc1 | > 100 µM (inactive) | 44.7 µM (inactive) | > 100 µM (inactive) | 61.8 µM (inactive) | 67.6 µM (inactive) | > 100 µM (inactive) | > 100 µM (inactive) | > 100 µM (inactive) | > 100 µM (inactive) | > 100 µM (inactive) | > 100 µM (inactive) | > 100 µM (inactive) | > 100 µM (inactive) | 96.2 µM (inactive) | > 100 µM (inactive) | > 100 µM (inactive) | 58.5 µM (inactive) | 99.1 µM (inactive)
C/C(=N/NC(=S)N(C)C)c1ccccc1O | > 22.5 µM (inactive) | > 23.7 µM (inactive) | 11.9 µM (inactive) | 3.53 µM (inactive) | 19.1 µM (inactive) | 18.9 µM (inactive) | 7.26 µM (inactive) | > 59.8 µM (inactive) | 11.9 µM (inactive) | 18.7 µM (inactive) | 13.3 µM (inactive) | 2.26 µM (inactive) | > 72.4 µM (inactive) | 2.88 µM (inactive) | 6.46 µM (inactive) | 36.1 µM (inactive) | 6.31 µM (inactive) | 8.67 µM (inactive)
CC(=O)OCCOCCN1CCN(C2=C(Cl)C(=O)c3c(O)ccc(O)c3C2=O)CC1 | 0.0394 µM (active) | 2.89 µM (inactive) | 1.63 µM (inactive) | 0.296 µM (active) | 0.264 µM (active) | 1.88 µM (inactive) | 0.318 µM (active) | 3.04 µM (inactive) | 0.497 µM (active) | 2.37 µM (inactive) | 0.46 µM (active) | 4.9 µM (inactive) | 3.1 µM (inactive) | 0.0662 µM (active) | 1.38 µM (inactive) | 1.86 µM (inactive) | 0.286 µM (active) | 1.22 µM (inactive)
COc1ccc(Nc2[nH]c(C(C)=O)c(N)c2C(=S)Nc2ccccc2)cc1 | 45.1 µM (inactive) | 36.1 µM (inactive) | 32.9 µM (inactive) | > 100 µM (inactive) | 45.9 µM (inactive) | > 100 µM (inactive) | 50.6 µM (inactive) | 82.8 µM (inactive) | 76.4 µM (inactive) | 28.2 µM (inactive) | 68.9 µM (inactive) | 48.3 µM (inactive) | 74 µM (inactive) | > 100 µM (inactive) | 25.9 µM (inactive) | > 100 µM (inactive) | 77.6 µM (inactive) | 51.6 µM (inactive)
O=C1Nc2ccccc2/C1=N/Nc1ccc([N+](=O)[O-])cc1 | 15.1 µM (inactive) | 19.1 µM (inactive) | 58.2 µM (inactive) | 15.4 µM (inactive) | 17 µM (inactive) | 12.9 µM (inactive) | 17.4 µM (inactive) | 32.8 µM (inactive) | 68.5 µM (inactive) | 70.5 µM (inactive) | 24 µM (inactive) | 30.1 µM (inactive) | 9.06 µM (inactive) | 22.4 µM (inactive) | 28.8 µM (inactive) | 15.2 µM (inactive) | 13.5 µM (inactive) | 13.3 µM (inactive)
NC(=O)C(Nc1c(Cl)cccc1Cl)c1cc2cc(Br)ccc2nc1Cl (stereo not given) | 28.4 µM (inactive) | 45.5 µM (inactive) | 29.6 µM (inactive) | 42.5 µM (inactive) | 29.4 µM (inactive) | > 100 µM (inactive) | > 100 µM (inactive) | 74.3 µM (inactive) | 27.6 µM (inactive) | 44.8 µM (inactive) | 34.6 µM (inactive) | 90.8 µM (inactive) | 85.3 µM (inactive) | 33.2 µM (inactive) | 44.1 µM (inactive) | > 100 µM (inactive) | 80.9 µM (inactive) | 55 µM (inactive)
COC(=O)c1cc(C#N)[nH]c1-c1cc(Br)cs1 | 13.2 µM (inactive) | 10.9 µM (inactive) | 12.8 µM (inactive) | 13.4 µM (inactive) | 20.3 µM (inactive) | 13.3 µM (inactive) | 10.8 µM (inactive) | 15 µM (inactive) | 15.4 µM (inactive) | > 41.7 µM (inactive) | 20.3 µM (inactive) | 19.8 µM (inactive) | 14.5 µM (inactive) | 13.8 µM (inactive) | 15.8 µM (inactive) | 4.97 µM (inactive) | 19.6 µM (inactive) | 10 µM (inactive)
C/C(=N/Nc1nc(C)cc(O)n1)C(=O)O | > 100 µM (inactive) | > 100 µM (inactive) | > 100 µM (inactive) | > 100 µM (inactive) | > 100 µM (inactive) | > 100 µM (inactive) | > 100 µM (inactive) | > 100 µM (inactive) | > 100 µM (inactive) | > 100 µM (inactive) | > 100 µM (inactive) | > 100 µM (inactive) | > 100 µM (inactive) | > 100 µM (inactive) | > 100 µM (inactive) | > 100 µM (inactive) | > 100 µM (inactive) | > 100 µM (inactive)
CC(=O)NNc1nc(C)c(C(/C=C/c2ccc(NC(C)=O)cc2)=N/NS(=O)(=O)c2ccc(C)cc2)s1 | > 100 µM (inactive) | > 100 µM (inactive) | > 100 µM (inactive) | > 100 µM (inactive) |  | > 100 µM (inactive) | > 100 µM (inactive) | > 100 µM (inactive) | > 100 µM (inactive) | > 100 µM (inactive) | > 100 µM (inactive) | > 100 µM (inactive) | > 100 µM (inactive) | > 100 µM (inactive) | > 100 µM (inactive) | > 100 µM (inactive) | > 100 µM (inactive) | > 100 µM (inactive)
CN(NC(=O)c1ccco1)C1=NCCN1 | > 100 µM (inactive) | > 100 µM (inactive) | > 100 µM (inactive) | > 100 µM (inactive) | > 100 µM (inactive) | > 100 µM (inactive) | > 100 µM (inactive) | > 100 µM (inactive) | > 100 µM (inactive) | > 100 µM (inactive) | > 100 µM (inactive) | > 100 µM (inactive) | > 100 µM (inactive) | > 100 µM (inactive) | > 100 µM (inactive) | > 100 µM (inactive) | > 100 µM (inactive) | > 100 µM (inactive)
CCCCCCSC[C@H](OC(C)=O)[C@@H](OC(C)=O)[C@@H](OC(C)=O)[C@@H](COC(C)=O)OC(C)=O | 33.6 µM (inactive) | > 100 µM (inactive) | > 100 µM (inactive) | > 100 µM (inactive) | 43.9 µM (inactive) | > 100 µM (inactive) | > 100 µM (inactive) | > 100 µM (inactive) | > 100 µM (inactive) | > 100 µM (inactive) | > 100 µM (inactive) | > 100 µM (inactive) | > 100 µM (inactive) | 43.6 µM (inactive) | > 100 µM (inactive) | > 100 µM (inactive) | > 100 µM (inactive) | > 100 µM (inactive)
CC(=O)OC12c3ccccc3-c3ccccc3C1C1C(=O)OC(=O)C12 (stereo not given) | > 10 µM (inactive) | > 10 µM (inactive) | > 10 µM (inactive) | > 10 µM (inactive) | > 10 µM (inactive) | > 10 µM (inactive) | > 10 µM (inactive) | > 10 µM (inactive) | > 10 µM (inactive) | > 10 µM (inactive) | > 10 µM (inactive) | > 10 µM (inactive) | > 10 µM (inactive) | > 10 µM (inactive) |  | > 10 µM (inactive) | > 10 µM (inactive) | > 10 µM (inactive)
